Values quoted from earlier work in publication PMC2109944 (The Journal of Cell Biology, 1977).

Key:
human fibroblasts = details: 125I-epidermal growth factor
[1] = tested on: dissociated anterior pituitary cells
mouse melanoma cells = details: binding at low temperature, no prefixation

Question: Which “internalization of hormone-bearing receptors” value (human fibroblasts) does the source give for “epidermal growth factor: 125I-labelled epidermal growth factor, literature comparison” here?
Answer: internalized within hours of the binding taking place

Question: For “luteinizing hormone-releasing hormone [LHRH]”, which “time to LH release by exocytosis after stimulation” value [1] is on record?
Answer: ≤ 1 min

Question: What about the “desensitization after short-term exposure” value ([1]; short-term exposure) of the same substance?
Answer: refractory to further stimulation by the peptide

Question: Which “initial distribution of MSH receptor sites” value (mouse melanoma cells) does the source give for a-MSH here?
Answer: initially distributed at one pole of the cell over the Golgi area
